target: T1, Human HIF-PHD2 (Homo sapiens, UniProt Q9GZT9); test: Inhibition of the hydroxylation of a HIF peptide by PHD2 (time resolved fluorescence, 384-well); type: biochemical; conditions: FLAG-tagged full length PHD2; 0.2 μM 2-oxoglutarate, 0.5 μM HIF-1α peptide; 45 minutes at room temperature; read-out: Human HIF-PHD2 IC50
T1 construct: FLAG-tagged full length PHD2 expressed in and purified from baculovirus-infected Sf9 cells; FLAG; made in house; host or cells: baculovirus-infected Sf9 cells
Protocol: To each well of a 384-well plate, 1 μL of test compounds in DMSO (final concentration ranging from 0.3 nM to 10 uM) were added into 20 μl of assay buffer (50 mM Tris pH 7.4/0.01% Tween-20/0.1 mg/ml bovine serum albumin/10 μM ferrous sulfate/1 mM sodium ascorbate/20 μg/ml catalase) containing 0.15 μg/ml FLAG-tagged full length PHD2 expressed in and purified from baculovirus-infected Sf9 cells. After a 5 min preincubation at room temperature, the enzymatic reactions were initiated by the addition of 4 μL of substrates {final concentrations of 0.2 μM 2-oxoglutarate and 0.5 μM HIF-1α peptide biotinyl-[…] […] After incubation for 45 minutes at room temperature, the reactions were terminated by the addition of a 25 μL quench/detection mix to a final concentration of 1 mM ortho-phenanthroline, 0.1 mM EDTA, 0.5 nM anti-(His)6 LANCE reagent (Perkin-Elmer Life Sciences), 100 nM AF647-labeled streptavidin (Invitrogen), and 2 μg/ml (His)6-VHL complex {S. Tan Protein Expr. Purif.

T1 sequence (Q9GZT9 whole entry): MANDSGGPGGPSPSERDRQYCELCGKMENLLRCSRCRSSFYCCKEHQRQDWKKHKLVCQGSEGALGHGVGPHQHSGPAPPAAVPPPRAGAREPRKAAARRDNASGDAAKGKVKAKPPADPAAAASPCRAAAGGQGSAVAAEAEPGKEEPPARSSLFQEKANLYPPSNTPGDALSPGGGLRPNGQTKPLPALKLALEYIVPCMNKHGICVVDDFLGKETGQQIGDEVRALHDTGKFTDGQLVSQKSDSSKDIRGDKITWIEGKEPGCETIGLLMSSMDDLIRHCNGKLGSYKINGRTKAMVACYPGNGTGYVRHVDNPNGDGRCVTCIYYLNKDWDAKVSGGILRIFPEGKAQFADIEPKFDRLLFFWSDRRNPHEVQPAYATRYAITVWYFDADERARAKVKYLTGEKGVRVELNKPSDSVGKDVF

IC50	SMILES
5.1 nM	N#Cc1ccc2c3c1c(O)c(C(=O)NCC(=O)O)c(=O)n3C(c1ccc(C(F)(F)F)cc1)CS2 (stereo not drawn) [Example 99, 2-(8-Cyano-7-hydroxy-5-oxo-3-(4-(trifluoromethyl)phenyl)-3,5-dihydro-2H-[1,4]thiazino[2,3,4-ij]quinoline-6-carboxamido)acetic acid]
12 nM	O=C(O)CNC(=O)c1c(O)c2c(O)ccc3c2n(c1=O)CC(c1ccc(C(F)(F)F)cc1)O3 (stereo not drawn) [Example 80, 2-(7,8-dihydroxy-5-oxo-2-(4-(trifluoromethyl)phenyl)-3,5-dihydro-2H-[1,4]oxazino[2,3,4-ij]quinoline-6-carboxamido)acetic acid]
0.9 nM	N#Cc1ccc2c(O)c(C(=O)NCC(=O)O)c(=O)n3c2c1CCC3 [Example 44, 2-(8-Cyano-1-hydroxy-3-oxo-3,5,6,7-tetrahydropyrido[3,2,1-ij]quinoline-2-carboxamido)acetic acid]
0.5 nM	N#Cc1ccc2c(O)c(C(=O)NCC(=O)O)c(=O)n3c2c1OC(c1ccc(C(F)(F)F)cc1)C3 (single isomer, unassigned) [Example 20, 2-(10-Cyano-7-hydroxy-5-oxo-2-(4-(trifluoromethyl)phenyl)-3,5-dihydro-2H-[1,4]oxazino[2,3,4-ij]quinoline-6-carboxamido)acetic acid]
1.3 nM	N#Cc1ccc2c(O)c(C(=O)NCC(=O)O)c(=O)n3c2c1OCC3Cc1ccc(C(F)(F)F)cc1 (stereo not drawn) [Example 32, 2-(10-Cyano-7-hydroxy-5-oxo-3-(4-(trifluoromethyl)benzyl)-3,5-dihydro-2H-[1,4]oxazino[2,3,4-ij]quinoline-6-carboxamido)acetic acid]
6.1 nM	NC(=O)c1ccc(-c2ccc(C3COc4cccc5c(O)c(C(=O)NCC(=O)O)c(=O)n3c45)cc2)cc1 (stereo not drawn) [Example 141, N-{[3-(4′-Carbamoylbiphenyl-4-yl)-7-hydroxy-5-oxo-2,3-dihydro-5H-[1,4]oxazino[2,3,4-ij]quinolin-6-yl]carbonyl}glycine]
68 nM	CN1CC(c2ccc(C(F)(F)F)cc2)n2c(=O)c(C(=O)NCC(=O)O)c(O)c3cccc1c32 (stereo not drawn) [Example 107, 2-(7-Hydroxy-1-methyl-5-oxo-3-(4-(trifluoromethyl)phenyl)-1,2,3,5-tetrahydropyrido[1,2,3-de]quinoxaline-6-carboxamido)acetic acid]
6.4 nM	O=C(O)CNC(=O)c1c(O)c2cccc3c2n(c1=O)CC(c1ccc(C(F)(F)F)cc1)O3 (stereo not drawn) [Example 10, 2-(7-Hydroxy-5-oxo-2-(4-(trifluoromethyl)phenyl)-3,5-dihydro-2H-[1,4]oxazino[2,3,4-ij]quinoline-6-carboxamido)acetic acid]
0.6 nM	N#Cc1ccc(C2Cn3c(=O)c(C(=O)NCC(=O)O)c(O)c4ccc(C#N)c(c43)O2)cc1 (stereo not drawn) [Example 56, 2-(10-Cyano-2-(4-cyanophenyl)-7-hydroxy-5-oxo-3,5-dihydro-2H-[1,4]oxazino[2,3,4-ij]quinoline-6-carboxamido)acetic acid]
15 nM	CN1c2cc(F)cc3c(O)c(C(=O)NCC(=O)O)c(=O)n(c23)CC1c1ccc(C(F)(F)F)cc1 (stereo not drawn) [Example 123, 2-(9-Fluoro-7-hydroxy-1-methyl-5-oxo-2-(4-(trifluoromethyl)phenyl)-1,2,3,5-tetrahydropyrido[1,2,3-de]quinoxaline-6-carboxamido)acetic acid]
17 nM	CC(C)(O)c1cc2c3c(c1)c(O)c(C(=O)NCC(=O)O)c(=O)n3C(Cc1ccc(C(F)(F)F)cc1)CO2 (stereo not drawn) [Example 36, 2-(7-Hydroxy-9-(2-hydroxypropan-2-yl)-5-oxo-3-(4-(trifluoromethyl)benzyl)-3,5-dihydro-2H-[1,4]oxazino[2,3,4-ij]quinoline-6-carboxamido)acetic acid]
4.4 nM	O=C(O)CNC(=O)c1c(O)c2cc(Br)cc3c2n(c1=O)CC(c1ccc(C(F)(F)F)cc1)O3 (stereo not drawn) [Example 16, 2-(9-Bromo-7-hydroxy-5-oxo-2-(4-(trifluoromethyl)phenyl)-3,5-dihydro-2H-[1,4]oxazino[2,3,4-ij]quinoline-6-carboxamido)acetic acid]
2.7 nM	O=C(O)CNC(=O)c1c(O)c2ccc(Br)c3c2n(c1=O)CC(c1ccc(Br)cc1)O3 (stereo not drawn) [Example 57, 2-(10-Bromo-2-(4-bromophenyl)-7-hydroxy-5-oxo-3,5-dihydro-2H-[1,4]oxazino[2,3,4-ij]quinoline-6-carboxamido)acetic acid]
13 nM	Cc1ccc2c3c1c(O)c(C(=O)NCC(=O)O)c(=O)n3CC(c1ccc(C(F)(F)F)cc1)O2 (stereo not drawn) [Example 63, 2-(7-Hydroxy-8-methyl-5-oxo-2-(4-(trifluoromethyl)phenyl)-3,5-dihydro-2H-[1,4]oxazino[2,3,4-ij]quinoline-6-carboxamido)acetic acid]
0.6 nM	N#Cc1ccc2c(O)c(C(=O)NCC(=O)O)c(=O)n3c2c1OC(c1ccc(C(F)(F)F)cc1)C3 (single isomer, unassigned) [Example 21, 2-(10-Cyano-7-hydroxy-5-oxo-2-(4-(trifluoromethyl)phenyl)-3,5-dihydro-2H-[1,4]oxazino[2,3,4-ij]quinoline-6-carboxamido)acetic acid]
3.1 nM	N#Cc1cc2c3c(c1)c(O)c(C(=O)NCC(=O)O)c(=O)n3C(c1ccc(C(F)(F)F)cc1)CN2 (stereo not drawn) [Example 92, 2-(9-Cyano-7-hydroxy-5-oxo-3-(4-(trifluoromethyl)phenyl)-1,2,3,5-tetrahydropyrido[1,2,3-de]quinoxaline-6-carboxamido)acetic acid]
13.1 nM	O=C(O)CNC(=O)c1c(O)c2cccc3c2n(c1=O)C(c1ccc(C(F)(F)F)cc1)CO3 (single isomer, unassigned) [Example 1b, 2-(7-Hydroxy-5-oxo-3-(4-(trifluoromethyl)phenyl)-3,5-dihydro-2H-[1,4]oxazino[2,3,4-ij]quinoline-6-carboxamido)acetic acid]
30 nM	CN1CC(c2ccc(C(F)(F)F)cc2)n2c(=O)c(C(=O)NCC(=O)O)c(O)c3cc(F)cc1c32 (stereo not drawn) [Example 122, 2-(9-Fluoro-7-hydroxy-1-methyl-5-oxo-3-(4-(trifluoromethyl)phenyl)-1,2,3,5-tetrahydropyrido[1,2,3-de]quinoxaline-6-carboxamido)acetic acid]
3 nM	N#Cc1cc2c3c(c1)c(O)c(C(=O)NCC(=O)O)c(=O)n3C(Cc1ccc(C(F)(F)F)cc1)CO2 (stereo not drawn) [Example 4, 2-(9-Cyano-7-hydroxy-5-oxo-3-(4-(trifluoromethyl)benzyl)-3,5-dihydro-2H-[1,4]oxazino[2,3,4-ij]quinoline-6-carboxamido)acetic acid]
5.6 nM	Cc1cc2c3c(c1)c(O)c(C(=O)NCC(=O)O)c(=O)n3CC(c1ccc(C(F)(F)F)cc1)O2 (stereo not drawn) [Example 19, 2-(7-Hydroxy-9-methyl-5-oxo-2-(4-(trifluoromethyl)phenyl)-3,5-dihydro-2H-[1,4]oxazino[2,3,4-ij]quinoline-6-carboxamido)acetic acid]
1.3 nM	N#Cc1ccc2c3c1c(O)c(C(=O)NCC(=O)O)c(=O)n3C(Cc1ccc(C(F)(F)F)cc1)CO2 (stereo not drawn) [Example 29, 2-(8-Cyano-7-hydroxy-5-oxo-3-(4-(trifluoromethyl)benzyl)-3,5-dihydro-2H-[1,4]oxazino[2,3,4-ij]quinoline-6-carboxamido)acetic acid]

same assay, conditions: FLAG-tagged full length PHD2; 0.2 μM 2-oxoglutarate, 0.5 μM HIF-1α peptide; 45 minutes at room temperature; read-out: MS m/z (M + 1)+ and human HIF-PHD2 IC50

IC50	SMILES
74 nM	O=C(O)CNC(=O)c1c(O)c2cccc3c2n(c1=O)C(c1cccc(C(F)(F)F)c1)CO3 (stereo not drawn) [Example 167]
3.7 nM	COc1ccc(-c2ccc3c(O)c(C(=O)NCC(=O)O)c(=O)n4c3c2OCC4)cn1 [Example 154, N-{[7-hydroxy-10-(6-methoxypyridin-3-yl)-5-oxo-2,3-dihydro-5H-[1,4]oxazino[2,3,4-ij]quinolin-6-yl]carbonyl}glycine]
2.8 nM	O=C(O)CNC(=O)c1c(O)c2ccc(Cl)c3c2n(c1=O)CC(c1ccc(C(F)(F)F)cc1)O3 (single isomer, unassigned) [Example 73, 2-(10-chloro-7-hydroxy-5-oxo-2-(4-(trifluoromethyl)phenyl)-3,5-dihydro-2H-[1,4]oxazino[2,3,4-ij]quinoline-6-carboxamido)acetic acid]
3.3 nM	O=C(O)CNC(=O)c1c(O)c2c(F)ccc3c2n(c1=O)CC(c1ccc(C(F)(F)F)cc1)O3 (single isomer, unassigned) [Example 69, 2-(8-fluoro-7-hydroxy-5-oxo-2-(4-(trifluoromethyl)phenyl)-3,5-dihydro-2H-[1,4]oxazino[2,3,4-ij]quinoline-6-carboxamido)acetic acid]
19 nM	O=C(O)CNC(=O)c1c(O)c2cccc3c2n(c1=O)C(c1ccc(-c2cccc(Cl)c2)cc1)CO3 (stereo not drawn) [Example 142, N-{[3-(3′-chlorobiphenyl-4-yl)-7-hydroxy-5-oxo-2,3-dihydro-5H-[1,4]oxazino[2,3,4-ij]quinolin-6-yl]carbonyl}glycine]
14 nM	COc1ncc(-c2ccc3c(O)c(C(=O)NCC(=O)O)c(=O)n4c3c2OCC4c2ccc(C(F)(F)F)cc2)cn1 (stereo not drawn) [Example 137, N-({7-hydroxy-10-(2-methoxypyrimidin-5-yl)-5-oxo-3-[4-(trifluoromethyl)phenyl]-2,3-dihydro-5H-[1,4]oxazino[2,3,4-ij]quinolin-6-yl}carbonyl)glycine]

From US9969752B2, “Inhibitors of HIF prolyl hydroxylase” (MERCK SHARP & DOHME CORP., priority 2014, dated 2018)
